# Experimental data as given in PubChem BioAssay AID1745844 (Carcinogenic Potency Database (CPDB), 2022).
# Several values for one entry are separate records, joined by “and”; a condition that tells them apart may be missing. Equal entries are not always repeated.
# Test system: rodent lifetime carcinogenesis bioassay, tumor incidence TD50
# Experiment: chronic cancer bioassays in animals – CPDB, compiled studies (AID 1745844)
# Settings: rat, strain Sprague-Dawley
smiles,measurement,setting,value
C=CCl,TD50,"females, inhaled, site: extrahepatic tissue, lesion: angioma, dosed 52 weeks, study length 111 weeks",115 mg/kg/day
same,TD50,"females, inhaled, site: extrahepatic tissue, lesion: angioma, dosed 52 weeks, study length 139 weeks",399 mg/kg/day
same,TD50,"females, inhaled, site: extrahepatic tissue, lesion: angiosarcoma, dosed 25 weeks, study length 135 weeks",2420 mg/kg/day
same,TD50,"females, inhaled, site: extrahepatic tissue, lesion: angiosarcoma, dosed 52 weeks, study length 111 weeks",52.9 mg/kg/day
same,TD50,"females, inhaled, site: extrahepatic tissue, lesion: angiosarcoma, dosed 52 weeks, study length 131 weeks",21400 mg/kg/day
same,TD50,"females, inhaled, site: kidney, lesion: nephroblastoma, dosed 25 weeks, study length 135 weeks",3140 mg/kg/day
same,TD50,"females, inhaled, site: kidney, lesion: nephroblastoma, dosed 52 weeks, study length 111 weeks",17.5 mg/kg/day
same,TD50,"females, inhaled, site: kidney, lesion: nephroblastoma, dosed 52 weeks, study length 139 weeks",230 mg/kg/day
same,TD50,"females, inhaled, site: liver, lesion: angioma, dosed 25 weeks, study length 127 weeks",913 mg/kg/day
same,TD50,"females, inhaled, site: liver, lesion: angioma, dosed 25 weeks, study length 135 weeks",507 mg/kg/day
same,TD50,"females, inhaled, site: liver, lesion: angioma, dosed 52 weeks, study length 111 weeks",30.7 mg/kg/day
same,TD50,"females, inhaled, site: liver, lesion: angioma, dosed 52 weeks, study length 139 weeks",378 mg/kg/day
same,TD50,"females, inhaled, site: liver, lesion: angioma, dosed 71 weeks, study length 71 weeks",9130 mg/kg/day
same,TD50,"females, inhaled, site: liver, lesion: angiosarcoma, dosed 25 weeks, study length 127 weeks",4460 mg/kg/day
same,TD50,"females, inhaled, site: liver, lesion: angiosarcoma, dosed 25 weeks, study length 135 weeks",2460 mg/kg/day
same,TD50,"females, inhaled, site: liver, lesion: angiosarcoma, dosed 52 weeks, study length 111 weeks",20.2 mg/kg/day
same,TD50,"females, inhaled, site: liver, lesion: angiosarcoma, dosed 52 weeks, study length 131 weeks",735 mg/kg/day and 21 mg/kg/day
same,TD50,"females, inhaled, site: liver, lesion: angiosarcoma, dosed 52 weeks, study length 139 weeks",113 mg/kg/day
same,TD50,"females, inhaled, site: liver, lesion: angiosarcoma, dosed 71 weeks, study length 71 weeks",240 mg/kg/day
same,TD50,"females, inhaled, site: liver, lesion: hepatocellular carcinoma, dosed 71 weeks, study length 71 weeks",1720 mg/kg/day
same,TD50,"females, inhaled, site: liver, lesion: hepatoma, dosed 25 weeks, study length 135 weeks",357 mg/kg/day
same,TD50,"females, inhaled, site: liver, lesion: hepatoma, dosed 52 weeks, study length 131 weeks",244 mg/kg/day
same,TD50,"females, inhaled, site: liver, lesion: hepatoma, dosed 52 weeks, study length 139 weeks",140 mg/kg/day
same,TD50,"females, inhaled, site: mammary gland, lesion: adenocarcinoma, dosed 25 weeks, study length 135 weeks",291 mg/kg/day
same,TD50,"females, inhaled, site: mammary gland, lesion: adenocarcinoma, dosed 52 weeks, study length 111 weeks",5.91 mg/kg/day
same,TD50,"females, inhaled, site: mammary gland, lesion: adenocarcinoma, dosed 52 weeks, study length 131 weeks",1.66 mg/kg/day
same,TD50,"females, inhaled, site: mammary gland, lesion: adenocarcinoma, dosed 52 weeks, study length 139 weeks",141 mg/kg/day
same,TD50,"males, by gavage, site: Zymbal's gland, lesion: carcinoma, dosed 52 weeks, study length 127 weeks",315 mg/kg/day
same,TD50,"males, by gavage, site: Zymbal's gland, lesion: carcinoma, dosed 59 weeks, study length 129 weeks",4.75 mg/kg/day
same,TD50,"males, by gavage, site: any site (literature study), lesion: several types, types named in the paper, dosed 52 weeks, study length 127 weeks",37.9 mg/kg/day
same,TD50,"males, by gavage, site: any site (literature study), lesion: several types, types named in the paper, dosed 59 weeks, study length 129 weeks",16.1 mg/kg/day
same,TD50,"males, by gavage, site: extrahepatic tissue, lesion: angioma, dosed 52 weeks, study length 127 weeks",409 mg/kg/day
same,TD50,"males, by gavage, site: kidney, lesion: nephroblastoma, dosed 52 weeks, study length 127 weeks",102 mg/kg/day
same,TD50,"males, by gavage, site: liver, lesion: angioma, dosed 52 weeks, study length 127 weeks",430 mg/kg/day
same,TD50,"males, by gavage, site: liver, lesion: angiosarcoma, dosed 52 weeks, study length 127 weeks",57.4 mg/kg/day
same,TD50,"males, by gavage, site: liver, lesion: angiosarcoma, dosed 59 weeks, study length 129 weeks",8.45 mg/kg/day
same,TD50,"males, by gavage, site: liver, lesion: hepatoma, dosed 59 weeks, study length 129 weeks",3.36 mg/kg/day
same,TD50,"males, inhaled, site: Zymbal's gland, lesion: carcinoma, dosed 25 weeks, study length 115 weeks",284 mg/kg/day
same,TD50,"males, inhaled, site: Zymbal's gland, lesion: carcinoma, dosed 25 weeks, study length 139 weeks",226 mg/kg/day
same,TD50,"males, inhaled, site: Zymbal's gland, lesion: carcinoma, dosed 52 weeks, study length 131 weeks",2320 mg/kg/day
same,TD50,"males, inhaled, site: Zymbal's gland, lesion: carcinoma, dosed 52 weeks, study length 139 weeks",50.4 mg/kg/day
same,TD50,"males, inhaled, site: adrenal gland, lesion: one or several types, types not named, dosed 52 weeks, study length 130 weeks",251 mg/kg/day
same,TD50,"males, inhaled, site: any site (literature study), lesion: several types, types named in the paper, dosed 25 weeks, study length 115 weeks",134 mg/kg/day
same,TD50,"males, inhaled, site: any site (literature study), lesion: several types, types named in the paper, dosed 25 weeks, study length 139 weeks",284 mg/kg/day
same,TD50,"males, inhaled, site: any site (literature study), lesion: several types, types named in the paper, dosed 52 weeks, study length 130 weeks",17.3 mg/kg/day
same,TD50,"males, inhaled, site: any site (literature study), lesion: several types, types named in the paper, dosed 52 weeks, study length 131 weeks",950 mg/kg/day
same,TD50,"males, inhaled, site: any site (literature study), lesion: several types, types named in the paper, dosed 52 weeks, study length 139 weeks",8.67 mg/kg/day
same,TD50,"males, inhaled, site: brain, lesion: neuroblastoma, dosed 52 weeks, study length 131 weeks",4580 mg/kg/day
same,TD50,"males, inhaled, site: extrahepatic tissue, lesion: angioma, dosed 25 weeks, study length 115 weeks",5810 mg/kg/day
same,TD50,"males, inhaled, site: extrahepatic tissue, lesion: angioma, dosed 52 weeks, study length 123 weeks",31.4 mg/kg/day
same,TD50,"males, inhaled, site: extrahepatic tissue, lesion: angioma, dosed 52 weeks, study length 131 weeks",8180 mg/kg/day
same,TD50,"males, inhaled, site: extrahepatic tissue, lesion: angioma, dosed 52 weeks, study length 139 weeks",18 mg/kg/day
